Source: ChEMBL document CHEMBL1158996, “Antiviral phloroglucinols from New Zealand Kunzea species” (1992)

Key:
[1] = test system: Poliovirus 1; assay: Antiviral activity against Poliovirus type 1 assessed as inhibition of virus-induced cytopathic effect at 5 ug/disk; type: functional; details: Enterovirus C; read-out: IZ
[2] = test system: Human alphaherpesvirus 1; assay: Antiviral activity against Herpes simplex virus type 1 assessed as inhibition of virus-induced cytopathic effect at 5 ug/disk; type: functional; details: read-out: IZ

Compound | zone of inhibition at 5 µg/disc [1] | zone of inhibition at 5 µg/disc [2]
COc1cc(O)c(C(=O)C(C)C)c(O)c1 | 17 mm | 17 mm
COc1cc(O)cc(O)c1C(=O)C(C)C [ROBUSTAOL B] | 17 mm | 17 mm
